30 compounds from ChEMBL document CHEMBL4184235, “Design, synthesis, SAR and biological investigation of 3-(carboxymethyl)rhodanine and aminothiazole inhibitors of Mycobacterium tuberculosis Zmp1” (Bioorg Med Chem Lett, 2018) can be followed below.

For data set [1], the system named is Mycobacterium tuberculosis. As to the kind of experiment: Inhibition of N-terminal enterokinase-cleavable His-tagged full-length Mycobacterium tuberculosis Zmp1 expressed in Escherichia coli BL21(DE3) assessed as residual enzyme activity at 50 uM using MCA-Pro-Leu-Gly-Leu-Dpa-Ala-Arg-NH2 substrate by fluorometry.
A short description of data set [2]: Inhibition of N-terminal enterokinase-cleavable His-tagged full-length Mycobacterium tuberculosis Zmp1 expressed in Escherichia coli BL21(DE3) assessed as reduction in enzyme activity at 50 uM using MCA-Pro-Leu-Gly-Leu-Dpa-Ala-Arg-NH2 substrate by fluorometry.
Data set [3] deals with Mycobacterium tuberculosis. Nature of the data set: Antimycobacterial activity against Mycobacterium tuberculosis H37Ra ATCC […] assessed as reduction in bacterial growth incubated for 7 days by resazurin microtiter assay. It counts as functional. The conditions noted are these: 168 h.
Data set [4] concerns Mycobacterium tuberculosis. Nature of the data set: Antimycobacterial activity against Mycobacterium tuberculosis infected in human THP1 cells assessed as inhibition of microbial growth by measuring colony forming units at 10 ug/ml incubated for 72 hrs followed by plating on Middlebrook 7H11 medium for 21 days. The data set is classed as functional. Conditions: THP-1, read-out: GI.

Data set [5] can be described thus: Cytotoxicity against human THP1 cells assessed as reduction in cell viability incubated for 72 hrs by MTT assay. It counts as cell-based. The conditions noted are these: THP-1 cells.
Data set [6] deals with Mycobacterium tuberculosis. As to the kind of experiment: Antimycobacterial activity against Mycobacterium tuberculosis infected in human THP1 cells assessed as inhibition of microbial growth by measuring colony forming units at 100 ug/ml incubated for 72 hrs followed by plating on Middlebrook 7H11 medium for 21 days. The data set is classed as functional. Conditions: THP-1, read-out: GI.

A short description of data set [7]: Cytotoxicity against African green monkey Vero cells assessed as reduction in cell viability incubated for 72 hrs by MTT assay. Conditions: chlorocebus sabaeus. The data set is classed as cell-based.

Molecules are shown by their SMILES. In brackets after ≈: the same amount, converted by molar mass.

`COc1cccc(-c2csc(N[C@H](Cc3ccccc3)C(=O)O)n2)c1`: the Activity in data set [1] is 91.9%.

`O=C(O)c1ccc(Cc2csc(N[C@H](Cc3ccccc3)C(=O)O)n2)cc1`: in data set [1], the Activity was 100%.

For the compound `O=C(O)CN1C(=O)/C(=C/c2cccc(C(=O)O)c2)SC1=S`, the Activity in data set [1] came to 11.2%. In addition, the IC50 in data set [2] turned out to be 15.7 µM.

As for `C[C@H](C(=O)O)N1C(=O)/C(=C/c2ccc(C(=O)O)cc2)SC1=S`, the Activity in data set [1] was 7.2%. For the same compound, the concentration for half-maximal inhibition (IC50) in data set [2] was 2.9 µM.

With `O=C(O)c1cccc(Cc2csc(N[C@H](Cc3ccccc3)C(=O)O)n2)c1`, the Activity in data set [1] was 100%.

On to `O=C(OCCc1ccccc1)c1ccc(/C=C2\SC(=S)N([C@H](Cc3ccccc3)C(=O)O)C2=O)cc1`, for which the Activity in data set [1] is 58.7%.

Consider `O=C(O)[C@@H](Cc1ccccc1)Nc1nc(Cc2ccccc2)cs1`, for which, in data set [1], the Activity came to 100%.

For the compound `N#Cc1ccc(/C=C2\SC(=S)N([C@H](Cc3ccccc3)C(=O)O)C2=O)cc1`, in data set [1], the Activity worked out at 7.1%. Moreover, the half-maximal inhibitory concentration (IC50) in data set [2] stood at 6.6 µM.

`COc1ccc(/C=C2\SC(=S)N([C@H](Cc3ccccc3)C(=O)O)C2=O)cc1`: in data set [1], the Activity stood at 12.3%. In addition, the IC50 in data set [2] was found to be 20.4 µM.

With `O=C(O)[C@@H](Cc1ccccc1)N1C(=O)/C(=C/c2cccs2)SC1=S`, the Activity in data set [1] was found to be 10.4%. In addition, the IC50 in data set [2] turned out to be 11.4 µM.

For `COC(=O)c1ccc(Cc2csc(N[C@H](Cc3ccccc3)C(=O)O)n2)cc1`, the Activity in data set [1] was determined as 61%.

Consider `O=C(O)c1ccc(/C=C2\SC(=S)N([C@H](Cc3ccccc3)C(=O)O)C2=O)cc1`, for which the MIC in data set [3] is greater than 64 µg/mL. In addition, the inhibition of growth at 10 µg/mL in data set [4] came to 0.1%. Moreover, the IC50 in data set [2] was 0.87 µM. For the same compound, the CC50 at 72 h in data set [5] and in data set [7] was greater than 125 µg/mL each time. For the same compound, the inhibition of growth at 100 µg/mL in data set [6] is 60%.

Regarding `COC(=O)c1cccc(/C=C2\SC(=S)N([C@H](Cc3ccccc3)C(=O)O)C2=O)c1`, the MIC in data set [3] worked out at 64 µg/mL (≈ 150 µM). For the same compound, the inhibition of growth at 10 µg/mL in data set [4] came to 0.5%. Moreover, the Activity in data set [1] came to 13.2%. Also, the concentration for half-maximal inhibition (IC50) in data set [2] was 12.5 µM. The CC50 at 72 h turned out to be 21.9 µg/mL (≈ 51.2 µM) in data set [5] and 32.5 µg/mL (≈ 76 µM) in data set [7].

For the compound `C[C@H](C(=O)O)N1C(=O)/C(=C/c2cccc(C(=O)O)c2)SC1=S`, the Activity in data set [1] was determined as 12.7%. Further, in data set [2], the half-maximal inhibitory concentration (IC50) was 1.3 µM.

For `O=C(O)c1ccc(-c2csc(N[C@H](Cc3ccccc3)C(=O)O)n2)cc1`, the Activity in data set [1] stood at 100%.

On to `O=C(O)[C@@H](Cc1ccccc1)Nc1nc(-c2ccc([N+](=O)[O-])cc2)cs1`, for which the Activity in data set [1] was 36.3%. The half-inhibitory concentration (IC50) in data set [2] is 35.7 µM.

`O=C(OCc1ccccc1)c1cccc(/C=C2\SC(=S)N([C@H](Cc3ccccc3)C(=O)O)C2=O)c1`: the MIC in data set [3] turned out to be 64 µg/mL (≈ 127 µM). Besides, the inhibition of growth at 10 µg/mL in data set [4] was 53.8%. The Activity in data set [1] turned out to be 13.5%. Moreover, the IC50 in data set [2] came to 24 µM. The CC50 at 72 h in data set [5] is 11.2 µg/mL (≈ 22.2 µM); in data set [7] it was 23.2 µg/mL (≈ 46.1 µM).

As to `COC(=O)c1cccc(Cc2csc(N[C@H](Cc3ccccc3)C(=O)O)n2)c1`, in data set [1], the Activity was 100%.

Consider `O=C(O)c1cccc(/C=C2\SC(=S)N([C@H](Cc3ccccc3)C(=O)O)C2=O)c1`, for which, in data set [3], the MIC is greater than 64 µg/mL. Further, in data set [4], the inhibition of growth at 10 µg/mL came to 23.4%. For the same compound, the Activity in data set [1] stood at 13.4%. For the same compound, the IC50 in data set [2] turned out to be 9.3 µM. Further, the results for the cytotoxic concentration (CC50) at 72 h in data set [5] and in data set [7] were 102 µg/mL (≈ 246 µM) and greater than 125 µg/mL, respectively. Besides, in data set [6], the inhibition of growth at 100 µg/mL came out at 54.5%.

In the case of `COc1cccc(/C=C2\SC(=S)N([C@H](C)C(=O)O)C2=O)c1`, the Activity in data set [1] is 12.6%. In data set [2], the IC50 was found to be 23.4 µM.

As to `COc1cccc(/C=C2\SC(=S)N([C@H](Cc3ccccc3)C(=O)O)C2=O)c1`, the Activity in data set [1] worked out at 10%. In addition, the IC50 in data set [2] turned out to be 18.4 µM.

As to `N#Cc1ccc(-c2csc(N[C@H](Cc3ccccc3)C(=O)O)n2)cc1`, the Activity in data set [1] is 35%. The IC50 in data set [2] turned out to be 41.3 µM.

Take `O=C(O)CN1C(=O)/C(=C/c2ccc(C(=O)O)cc2)SC1=S`: the Activity in data set [1] was 10.3%. For the same compound, the IC50 in data set [2] stood at 3.9 µM.

Take `CC(C)COC(=O)c1ccc(/C=C2\SC(=S)N([C@H](Cc3ccccc3)C(=O)O)C2=O)cc1`: in data set [1], the Activity turned out to be 28.1%. Besides, the IC50 in data set [2] was determined as 43.9 µM.

As to `O=C(O)c1cccc(-c2csc(N[C@H](Cc3ccccc3)C(=O)O)n2)c1`, the Activity in data set [1] was determined as 100%.

In the case of `O=C(O)[C@@H](Cc1ccccc1)N1C(=O)/C(=C/c2ccncc2)SC1=S`, the Activity in data set [1] came out at 19.1%. Moreover, the IC50 in data set [2] worked out at 26.9 µM.

With `COc1cccc(/C=C2\SC(=S)N(CC(=O)O)C2=O)c1`, in data set [1], the Activity is 18.9%. The IC50 in data set [2] stood at 28.2 µM.

In the case of `COc1ccc(-c2csc(N[C@H](Cc3ccccc3)C(=O)O)n2)cc1`, in data set [1], the Activity amounted to 100%.

Turning to `COc1cccc(Cc2csc(N[C@H](Cc3ccccc3)C(=O)O)n2)c1`, the Activity in data set [1] was found to be 100%.

Regarding `O=C(O)c1ccc(/C=C2\SC(=S)N([C@@H](Cc3ccccc3)C(=O)O)C2=O)cc1`, the MIC in data set [3] was greater than 64 µg/mL. Moreover, the inhibition of growth at 10 µg/mL in data set [4] was 57.4%. The CC50 at 72 h in data set [5] is 115 µg/mL (≈ 278 µM); in data set [7], greater than 125 µg/mL. In addition, the inhibition of growth at 100 µg/mL in data set [6] stood at 58.3%.
